We go through one compound from patent US20250031697A1, “METHODS AND COMPOSITIONS TO PREVENT PLANT PESTS AND PATHOGENS” (Impello Biosciences, Inc., priority 2021, published 2025).

Holding throughout (assay type): in vivo
Assay [1] deals with bunch rot (Botrytis cinerea). Kind of assay: Vineyard trial, MDJ on cabernet sauvignon grapes, laccase analysed as measure of Botrytis prevalence. The following applies: MDJ approx. 5 mM, 50 gallons per acre, four applications, control = grower standard. The procedure:
Methyl dihydrojasmonate (MDJ) was applied to fields of grape to investigate the efficacy of MDJ in preventing bunch rot on (Botrytis cinerea) and powdery mildew (Erysiphe necator) on grapes. A composition comprising 22.6% w/v MDJ, 49.8% v/v TWEEN-20, and water was diluted at a rate of 32 oz. (1 liter) per 50 gallons of water (approximately a 5 mM solution of MDJ). The composition was then applied (at a rate of 50 gallons per acre) to three acres (1245 vines/acre) of a cabernet sauvignon variety grown in Napa Valley, CA. There was a total of four applications between June and September using a ground spray rig. To investigate the prevalence of Botrytis, the enzyme laccase was analyzed. Laccase can negatively impact wine by causing premature browning of bottled white wine and color degradation in red wine. The MDJ treated group had 2 units/ml, whereas the control (grower standard) had 5 units/ml. This level in the control means that Botrytis problems can be expected during the wine making process, whereas in the MDJ treated group, the value of 2 units/ml means there will be no issues with Botrytis during the wine making process.

For a further assay, the system named is Botrytis cinerea. Kind of assay: Hemp inoculated with Botrytis cinerea, visual disease score 0-5 at harvest. The following applies: 8 replicates. The procedure: Culturing Botrytis cinerea: A Botrytis cinerea isolate was cultured onto potato-dextrose agar (PDA). It was resisolated by taking a mycelial plug from the edge of actively growing cultures every 2-3 weeks to maintain active growing culture. It was maintained at 20° C. under continuous light (˜58 pEin m^−2 s^−1).
Inoculating hemp: The inoculum was prepared by flooding a full grown B. cinerea PDA plate with DI water and 0.1% Tween-20 to create a suspension of fungal spores. Spore count was quantified.
In the first inoculation, a suspension of 1.2×10^4 spores of B. cinerea/mL was created, and 1.5 mL was applied to the top cola/inflorescence of each plant. Hemp was inoculated in the first week of flowering, with application to the underdeveloped inflorescences.
In the second inoculation, a suspension of 1.5×10^5 spores of B. cinerea/mL was created, and sucrose was added to 1% concentration, and the plants were sprayed until drip using a backpack sprayer.
Inoculated plants were placed in a growth chamber or controlled growth environment with a constant temperature of 20-25° C. and 50-70% relative humidity.
Treatment Conditions: Treatments comprising 1 mM or 5 mM jasmonate (MDJ) were applied alone or alongside a biological (Continuum™). These treatment conditions were compared to control (no MDJ, no biological). Each treatment group had 8 replicates. […]

Assay [2] deals with powdery mildew (Erysiphe necator). Kind of assay: Vineyard trial, MDJ on cabernet sauvignon grapes, powdery mildew on leaf and fruit samples under the microscope. The following applies: MDJ approx. 5 mM, 50 gallons per acre, four applications; grape leaf and fruit samples. The protocol: Methyl dihydrojasmonate (MDJ) was applied to fields of grape to investigate the efficacy of MDJ in preventing bunch rot on (Botrytis cinerea) and powdery mildew (Erysiphe necator) on grapes. A composition comprising 22.6% w/v MDJ, 49.8% v/v TWEEN-20, and water was diluted at a rate of 32 oz. (1 liter) per 50 gallons of water (approximately a 5 mM solution of MDJ). The composition was then applied (at a rate of 50 gallons per acre) to three acres (1245 vines/acre) of a cabernet sauvignon variety grown in Napa Valley, CA. There was a total of four applications between June and September using a ground spray rig. Several leaf and fruit samples were collected to access the presence of powdery mildew under the microscope and compared to leaf and fruit of plants treated with the grower standard.

Another assay relates to Botrytis. Kind of assay: Field trial, MDJ foliar spray on 'Maverick' strawberries, Botrytis incidence on berries. To be noted: MDJ approx. 5 mM, 50 gallons per acre, two foliar sprays. The protocol: Methyl dihydrojasmonate (MDJ) was applied to fields of strawberry to investigate the efficacy of MDJ in preventing Botriytis disease. A composition comprising 22.6% w/v MDJ, 49.8% v/v TWEEN-20, and water was diluted at a rate of 32 oz. (1 liter) per 50 gallons of water (approximately a 5 mM solution of MDJ). The composition was then applied (at a rate of 50 gallons per acre) to an acre of ‘Maverick’ strawberries grown in Watsonville, CA on Aug. 18, 2021 and again on Sep. 2, 2021 using an electrostatic backpack sprayer (foliar spray). Plants were harvested in October 2021. MDJ plants were compared to strawberries treated with the grower standard; a rotation of Pristine® (pyraclostrobin and boscalid), Merivon® (pyraclostrobin), Luna® (fluopyram and trifloxystrobin), and Elevate® (fenhexamid). […] Out of four replicates of 10 plants each, the average incidence of Botrytis on berries in the MDJ treated acre was 11%, compared to 18.75% in the grower standard population.

“And” between values parts separate entries of the source, which are not always exact repeats. Identical values can stand only once.

The compound `CCCCCC1C(=O)CCC1CC(=O)OC` (stereo not drawn) [MDJ, methyl dihydrojasmonate] returned a Laccase in assay [1] of 2 units/ml. Further, the “Average Disease Score” value amounted to 2.625 in the assay on Botrytis cinerea (condition B: 1 mM MDJ foliar spray) and 2.250 in the assay on Botrytis cinerea (condition C: 5 mM MDJ foliar spray). In addition, the “Control of powdery mildew compared to grower standard” value in assay [2] is listed as “the same, or better, control of powdery mildew as the grower standard”. Moreover, the “Average % incidence of Botrytis on berries” value in the assay with Botrytis (average of four replicates of 10 plants each) was determined as 11%. The “% incidence of Botrytis” value in the assay on Botrytis (single replicates 1-4, 10 plants each, strawberry berries) is 10% and 16% and 7% and 11%.
